Laboratory results from US11542492B2 (Celgene CAR LLC, priority 2009, dated 2023).

Biological target: T1, HCV NS3/4A 1b protease enzyme (wild type) (Hepatitis C virus genotype 1b, UniProt P26663)
T1 construct: 10× stocks of NS3/4A protease enzyme from Bioenza (Mountain View, Calif.); purchased Bioenza
Assay: HCV protease FRET assay (IC50_APP), wild type NS3/4A 1b
Format: biochemical
Details: not given
Experimental: HCV Protease FRET Assay for WT and Mutated NS3/4A 1b Enzymes (IC50_APP).
The following protocol was used to generate “apparent” IC50 (IC50_APP) values as depicted in Table 6, below. Without wishing to be bound by any particular theory, it is believed that IC50_APP, contrasted with IC50 values, may provide a more useful indication of time-dependent inhibition, and are thus more representative of binding affinity. […] 5 μL of each enzyme were added to Corning (#3575) 384-well, black, microtiter plates (Corning, N.Y.) after spotting a 0.5 μL volume of 50% DMSO and serially diluted compounds prepared in 50% DMSO. Protease reactions were immediately started after enzyme addition with the addition of 45 μL of the FRET substrate and monitored for 60-90 minutes at λex485/λem520 in a Synergy plate reader from BioTek (Winooski, Vt.). At the conclusion of each assay, progress curves from each well were examined for linear reaction kinetics and fit statistics (R^2, 95% confidence intervals, absolute sum of squares). Initial velocity (0 minutes to 15+ minutes) from each reaction was determined from the slope of a plot of relative fluorescence units vs time (minutes) and then plotted against inhibitor concentration as a percent of the no inhibitor and no enzyme controls to estimate apparent IC50 from log [Inhibitor] vs Response. (Variable Slope model in GraphPad Prism from GraphPad Software (San Diego, Calif.).)

T1 sequence (P26663 1658-1711): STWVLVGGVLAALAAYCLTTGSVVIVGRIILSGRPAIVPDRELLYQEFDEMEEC
T1 sequence (P26663 1027-1657): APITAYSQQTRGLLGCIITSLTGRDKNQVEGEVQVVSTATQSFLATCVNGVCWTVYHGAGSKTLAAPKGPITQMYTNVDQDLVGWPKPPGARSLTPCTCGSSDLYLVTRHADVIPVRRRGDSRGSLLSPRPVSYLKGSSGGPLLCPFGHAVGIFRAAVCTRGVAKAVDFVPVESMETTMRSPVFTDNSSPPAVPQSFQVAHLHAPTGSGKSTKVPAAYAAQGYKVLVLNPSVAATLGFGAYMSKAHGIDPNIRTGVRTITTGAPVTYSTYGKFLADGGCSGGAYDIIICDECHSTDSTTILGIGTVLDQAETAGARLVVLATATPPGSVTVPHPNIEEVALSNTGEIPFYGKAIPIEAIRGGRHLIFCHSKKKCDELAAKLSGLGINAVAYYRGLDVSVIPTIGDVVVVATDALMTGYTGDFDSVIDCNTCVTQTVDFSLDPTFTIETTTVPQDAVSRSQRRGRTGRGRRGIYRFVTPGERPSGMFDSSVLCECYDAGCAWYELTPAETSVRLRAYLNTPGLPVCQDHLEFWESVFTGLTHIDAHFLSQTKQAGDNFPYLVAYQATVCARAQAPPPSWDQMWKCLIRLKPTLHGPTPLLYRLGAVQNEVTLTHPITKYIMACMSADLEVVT

| SMILES | IC50 |
| --- | --- |
| C=C[C@@H]1C[C@]1(NC(=O)[C@@H]1CC(OC(=O)N2Cc3cccc(F)c3C2)CN1C(=O)[C@H](CN(C)C(=O)[C@H]1CCC(=O)O1)NC(=O)OC(C)(C)C)C(=O)NS(=O)(=O)C1CC1 (stereo partly drawn) [XVI-18, (5S)-1-((S)-2-(tert-butoxycarbonylamino)-3-((R)-N-methyl-5-oxotetrahydrofuran-2-carboxamido)propanoyl)-5-((1R,2S)-1-(cyclopropylsulfonylcarbamoyl)-2-vinylcyclopropylcarbamoyl)pyrrolidin-3-yl 4-fluoroisoindoline-2-carboxylate] | 1 to 10 nM |
| C=C[C@@H]1C[C@]1(NC(=O)[C@@H]1CC(OC(=O)N2Cc3cccc(F)c3C2)CN1C(=O)[C@H](CN(C)C(=O)[C@@H]1CCC(=O)O1)NC(=O)OC(C)(C)C)C(=O)NS(=O)(=O)C1CC1 (stereo partly drawn) [XVI-19, (5S)-1-((S)-2-(tert-butoxycarbonylamino)-3-((S)-N-methyl-5-oxotetrahydrofuran-2-carboxamido)propanoyl)-5-((1R,2S)-1-(cyclopropylsulfonylcarbamoyl)-2-vinylcyclopropylcarbamoyl)pyrrolidin-3-yl 4-fluoroisoindoline-2-carboxylate] | 1 to 10 nM |
| C=C[C@@H]1C[C@]1(NC(=O)[C@@H]1CC(OC(=O)N2Cc3cccc(F)c3C2)CN1C(=O)[C@@H]1CCC(=O)O1)C(=O)NS(=O)(=O)C1CC1 (stereo partly drawn) [XVI-23, (5S)-5-((1R,2S)-1-(cyclopropylsulfonylcarbamoyl)-2-vinylcyclopropylcarbamoyl)-1-((S)-5-oxotetrahydrofuran-2-carbonyl)pyrrolidin-3-yl 4-fluoroisoindoline-2-carboxylate] | 100 to 1000 nM |
| C=C[C@@H]1C[C@]1(NC(=O)[C@@H]1CC(OC(=O)N2Cc3cccc(F)c3C2)CN1C(=O)[C@H]1CCC(=O)O1)C(=O)NS(=O)(=O)C1CC1 (stereo partly drawn) [XVI-22, (5S)-5-((1R,2S)-1-(cyclopropylsulfonylcarbamoyl)-2-vinylcyclopropylcarbamoyl)-1-((R)-5-oxotetrahydrofuran-2-carbonyl)pyrrolidin-3-yl 4-fluoroisoindoline-2-carboxylate] | > 1000 nM |
| C=C[C@@H]1C[C@]1(NC(=O)[C@@H]1CC(OC(=O)N2Cc3cccc(F)c3C2)CN1C(=O)[C@H](CCNC(=O)[C@@H]1CCC(=O)O1)NC(=O)OC(C)(C)C)C(=O)NS(=O)(=O)C1CC1 (stereo partly drawn) [XVI-11, (5S)-1-((S)-2-(tert-butoxycarbonylamino)-4-((S)-5-oxotetrahydrofuran-2-carboxamido)butanoyl)-5-((1R,2S)-1-(cyclopropylsulfonylcarbamoyl)-2-vinylcyclopropylcarbamoyl)pyrrolidin-3-yl 4-fluoroisoindoline-2-carboxylate] | 100 to 1000 nM |
| C=C[C@@H]1C[C@]1(NC(=O)[C@@H]1CC(OC(=O)N2Cc3cccc(F)c3C2)CN1C(=O)[C@H](CCNC(=O)[C@H]1CCC(=O)O1)NC(=O)OC(C)(C)C)C(=O)NS(=O)(=O)C1CC1 (stereo partly drawn) [XVI-10, (5S)-1-((S)-2-(tert-butoxycarbonylamino)-4-((R)-5-oxotetrahydrofuran-2-carboxamido)butanoyl)-5-((1R,2S)-1-(cyclopropylsulfonylcarbamoyl)-2-vinylcyclopropylcarbamoyl)pyrrolidin-3-yl 4-fluoroisoindoline-2-carboxylate] | 100 to 1000 nM |
| C=C[C@@H]1C[C@]1(NC(=O)[C@@H]1CC(OC(=O)N2Cc3cccc(F)c3C2)CN1C(=O)CNC(=O)[C@H]1CCC(=O)O1)C(=O)NS(=O)(=O)C1CC1 (stereo partly drawn) [XVI-12, (5S)-5-((1R,2S)-1-(cyclopropylsulfonylcarbamoyl)-2-vinylcyclopropylcarbamoyl)-1-(2-((R)-5-oxotetrahydrofuran-2-carboxamido)acetyl)pyrrolidin-3-yl 4-fluoroisoindoline-2-carboxylate] | 100 to 1000 nM |
| C=C[C@@H]1C[C@]1(NC(=O)[C@@H]1CC(OC(=O)N2Cc3cccc(F)c3C2)CN1C(=O)CNC(=O)[C@@H]1CCC(=O)O1)C(=O)NS(=O)(=O)C1CC1 (stereo partly drawn) [XVI-13, (5S)-5-((1R,2S)-1-(cyclopropylsulfonylcarbamoyl)-2-vinylcyclopropylcarbamoyl)-1-(2-((S)-5-oxotetrahydrofuran-2-carboxamido)acetyl)pyrrolidin-3-yl 4-fluoroisoindoline-2-carboxylate] | 100 to 1000 nM |
| C=C[C@@H]1C[C@]1(NC(=O)[C@@H]1CC(OC(=O)N2Cc3cccc(F)c3C2)CN1C(=O)[C@H](CNC(=O)[C@H]1CCC(=O)O1)NC(=O)OC(C)(C)C)C(=O)NS(=O)(=O)C1CC1 (stereo partly drawn) [XVI-20, (5S)-1-((S)-2-(tert-butoxycarbonylamino)-3-((R)-5-oxotetrahydrofuran-2-carboxamido)propanoyl)-5-((1R,2S)-1-(cyclopropylsulfonylcarbamoyl)-2-vinylcyclopropylcarbamoyl)pyrrolidin-3-yl 4-fluoroisoindoline-2-carboxylate] | 1 to 10 nM |

Biological target: T2, PDPK1 (Homo sapiens, UniProt O15530)
T2 sequence (O15530 1-556): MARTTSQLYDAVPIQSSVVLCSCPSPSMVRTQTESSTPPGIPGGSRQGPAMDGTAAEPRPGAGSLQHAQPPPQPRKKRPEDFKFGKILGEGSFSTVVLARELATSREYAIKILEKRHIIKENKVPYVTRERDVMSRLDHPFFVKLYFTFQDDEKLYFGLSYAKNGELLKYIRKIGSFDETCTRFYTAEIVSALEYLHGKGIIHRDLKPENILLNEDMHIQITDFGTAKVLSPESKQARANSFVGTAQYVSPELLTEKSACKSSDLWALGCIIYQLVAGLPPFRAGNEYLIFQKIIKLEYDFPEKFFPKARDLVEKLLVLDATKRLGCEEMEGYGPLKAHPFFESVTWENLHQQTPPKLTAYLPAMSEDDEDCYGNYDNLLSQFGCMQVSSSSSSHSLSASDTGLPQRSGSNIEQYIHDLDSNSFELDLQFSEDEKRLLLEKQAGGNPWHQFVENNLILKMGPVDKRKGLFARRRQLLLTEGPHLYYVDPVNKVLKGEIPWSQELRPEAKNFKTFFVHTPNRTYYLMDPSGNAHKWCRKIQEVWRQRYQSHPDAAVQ
Assay: PDK1-OMNIA kinase assay (ST28-Sox peptide)
Format: biochemical
Design: purchased Invitrogen, BPS or SignalChem P3001 (Invitrogen), 40080 (BPS), P14-10H (SignalChem)
Details: PDPK1 enzyme pre-incubated 30 min at 25° C. with compound; [ATP]=5 μM; ST28-Sox peptide substrate; read-out: Inhibition/Modification Designation (IC50, PDK1-OMNIA)
Experimental: Briefly, a 10× stock of PDPK1 enzyme from Invitrogen (P3001) or BPS (40080) or SignalChem (P14-10H), 1.13×ATP (AS001A) and ST28-Sox peptide substrate (KNZ1281C) were prepared in 1× kinase reaction buffer consisting of 20 mM Tris, pH 7.5, 5 mM MgCl2, 1 mM EGTA, 5 mM β-glycerophosphate, 5% glycerol (10× stock, KB002A) and 0.2 mM DTT (DS001A). 5 μL of enzyme were pre-incubated in a Corning (#3574) 384-well, white, non-binding surface microtiter plate (Corning, N.Y.) for 30 min at 25° C. with a 0.5 μL volume of 50% DMSO and serially diluted compounds prepared in 50% DMSO. Kinase reactions were started with the addition of 45 […] of the ST28-Sox peptide substrate and monitored every 71 seconds for 30-60 minutes at λex360/λem485 in a Synergy4 plate reader from BioTek (Winooski, Vt.). At the conclusion of each assay, progress curves from each well were examined for linear reaction kinetics and fit statistics (R^2, 95% confidence interval, absolute sum of squares). Post-lag velocity (+10 minutes to 20+ minutes) from each reaction was estimated from the slope of a plot of relative fluorescence units vs time (minutes) and normalized to the no enzyme and no inhibitor control groups for % Inhibition. The resulting inhibition values were then plotted against inhibitor concentration to estimate IC50 from log [Inhibitor] vs Response, Variable Slope model in GraphPad Prism from GraphPad Software (San Diego, Calif.).
[Reagent] used in provisional protocol(s): Invitrogen—[PDPK1]=5-10 nM, [ATP]=5 μM and [ST28-Sox]=5 μM or 10 μM (ATP KMapp=4-6 μM); BPS—[PDPK1]=10-15 nM, [ATP]=5 μM and [ST28-Sox]=10 μM (ATP KMapp=3-5 μM); SignalChem—[PDPK1]=5-10 nM, [ATP]=5 μM and [ST28-Sox]=5 μM or 10 μM (ATP KMapp ND)

| SMILES | IC50 |
| --- | --- |
| CC(C)(C(N)=O)C(=O)NCCCNc1nc(Nc2cccc(NC(=O)CCC(=O)Oc3ccccc3)c2)ncc1Br [XI-25] | < 10 nM |
| COC1=CC(=O)CC(C(=O)Nc2cccc(Nc3ncc(Br)c(NCCCNC(=O)C(C)(C)C(N)=O)n3)c2)C1 (stereo not drawn) [XI-30] | 10 to 100 nM |
| CC(C)(C(N)=O)C(=O)NCCCNc1nc(Nc2cccc(NC(=O)[C@H]3CCC(=O)O3)c2)ncc1Br [XI-50] | 10 to 100 nM |
| CC(C)(C(N)=O)C(=O)NCCCNc1nc(Nc2cccc(NC(=O)CCC(=O)N3CCC3=O)c2)ncc1Br [XI-55] | < 10 nM |
| CC(C)(C(N)=O)C(=O)NCCCNc1nc(Nc2cccc(NC(=O)CNC(=O)[C@@H]3CCC(=O)O3)c2)ncc1Br [XI-37] | 10 to 100 nM |
| CC(C)(C(N)=O)C(=O)NCCCNc1nc(Nc2cccc(CCC(=O)N3C[C@H]4C[C@@H]3C(=O)O4)c2)ncc1Br [XI-45] | 10 to 100 nM |
| CON1C[C@H](NC(=O)CCC(=O)Nc2cccc(Nc3ncc(Br)c(NCCCNC(=O)C(C)(C)C(N)=O)n3)c2)C1=O [XI-47] | < 10 nM |
| CC(C)(C(N)=O)C(=O)NCCCNc1nc(Nc2ccc(NC(=O)[C@H]3CCC(=O)O3)cc2)ncc1Br [XI-42] | 10 to 100 nM |
| CC(C)(C(N)=O)C(=O)NCCCNc1nc(Nc2cccc(NC(=O)C3CCSC3=O)c2)ncc1Br (stereo not drawn) [XI-23] | 10 to 100 nM |
| CC(C)(C(N)=O)C(=O)NCCCNc1nc(Nc2ccc(NC(=O)[C@@H]3CCC(=O)O3)cc2)ncc1Br [XI-43] | 100 to 1000 nM |
| C=CC(=O)NCC(=O)Nc1cccc(Nc2ncc(Br)c(NCCCNC(=O)C(C)(C)C(N)=O)n2)c1 [XI-31] | 10 to 100 nM |
| CC(C)(C(N)=O)C(=O)NCCCNc1nc(Nc2cccc(NC(=O)c3ccc4c(c3)CCC(=O)O4)c2)ncc1Br [XI-36] | 10 to 100 nM |
